Experimental data published in US20260356856A1, “KRAS G12S AND G12C INHIBITORS” (MIRATI THERAPEUTICS, INC., priority 2023, published 2026).

Key:
Assay in all cases: KRas binding assay, TR-FRET displacement of Cy5 labelled tracer
Settings in all cases: 60-minute incubation at room temperature, 1% DMSO, pH 7.5
KRas G12S = molecular target: T1, KRas G12S (Homo sapiens, UniProt P01116, G12S)
T1 construct: Biotinylated KRas (corresponding to amino acids 1-169, produced at Accelegan Inc.); biotin (biotinylated); purchased Accelegan Inc
T1 sequence (P01116 1-169 isoform P01116-2 G12S): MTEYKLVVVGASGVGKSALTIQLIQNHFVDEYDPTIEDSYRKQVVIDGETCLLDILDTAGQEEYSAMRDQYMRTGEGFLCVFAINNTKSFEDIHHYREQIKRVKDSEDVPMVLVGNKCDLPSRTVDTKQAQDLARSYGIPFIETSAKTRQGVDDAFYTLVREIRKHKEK
Description: (§1) This Example illustrates that exemplary compounds of the present invention bind to KRas and are capable of displacing a labeled tracer ligand occupying the KRas binding site. KRas^WT, KRas^G12A, KRas^G12C, KRas^G12D, KRas^G12R, KRas^G12S, KRas^G12V, KRas^G13D, or KRas^Q61H was used in the assay.
(§2) The ability of a compound to bind to KRas was measured using a TR-FRET displacement assay. Biotinylated KRas (corresponding to amino acids 1-169, produced at Accelegan Inc.) was incubated with custom made Cy5 labelled tracer, terbium streptavidin (Cisbio Inc.) and compound (1% DMSO final) in buffer (50 mM HEPES, pH 7.5, 5 mM MgCl2, 0.005% Tween-20 and 1 mM DTT). After a 60-minute incubation at room temperature, the reaction was measured using a BMG LABTECH CLARIO star Plus via TR-FRET. […] The POC values were fit to a 4-parameter IC50 equation and the IC50 value reported.

KRas G12C = molecular target: T2, KRas G12C (Homo sapiens, UniProt P01116, G12C)
T2 construct: Biotinylated KRas (corresponding to amino acids 1-169, produced at Accelegan Inc.); biotin (biotinylated); purchased Accelegan Inc
T2 sequence (P01116 1-169 isoform P01116-2 G12C): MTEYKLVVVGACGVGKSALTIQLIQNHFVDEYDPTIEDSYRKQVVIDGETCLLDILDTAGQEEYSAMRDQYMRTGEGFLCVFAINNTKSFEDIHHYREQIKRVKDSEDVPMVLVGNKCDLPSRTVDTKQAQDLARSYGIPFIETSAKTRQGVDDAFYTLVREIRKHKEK
Description: as §1, §2

KRas WT = molecular target: T3, KRas WT (Homo sapiens, UniProt P01116)
T3 construct: Biotinylated KRas (corresponding to amino acids 1-169, produced at Accelegan Inc.); biotin (biotinylated); purchased Accelegan Inc
T3 sequence (P01116 1-169 isoform P01116-2): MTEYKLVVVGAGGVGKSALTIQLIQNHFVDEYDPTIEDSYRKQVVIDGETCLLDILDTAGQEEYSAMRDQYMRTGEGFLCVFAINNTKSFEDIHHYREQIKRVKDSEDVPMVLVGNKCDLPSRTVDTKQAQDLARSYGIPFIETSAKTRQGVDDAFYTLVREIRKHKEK
Description: as §1, §2

Compound | IC50 (KRas G12S) [nM] | IC50 (KRas G12C) [nM] | IC50 (KRas WT) [nM]
N#Cc1ccccc1OC(=O)[C@@H]1[C@@H]2CC[C@H]1CN(c1nc(OCC34CCCN3CCC4)nc3c(F)c(-c4cccc5cccc(F)c45)ncc13)C2 [Example 21, 2-cyanophenyl (1R,5S,8r)-3-(8-fluoro-7-(8-fluoronaphthalen-1-yl)-2-((tetrahydro-1H-pyrrolizin-7a(5H)-yl)methoxy)pyrido[4,3-d]pyrimidin-4-yl)-3-azabicyclo[3.2.1]octane-8-carboxylate] | > 100000 | 15900 | 52200
N#Cc1cccc(OC(=O)[C@@H]2[C@@H]3CC[C@H]2CN(c2nc(OCC45CCCN4CCC5)nc4c(F)c(-c5cccc6cccc(F)c56)ncc24)C3)c1 [Example 22, 3-cyanophenyl (1R,5S,8r)-3-(8-fluoro-7-(8-fluoronaphthalen-1-yl)-2-((tetrahydro-1H-pyrrolizin-7a(5H)-yl)methoxy)pyrido[4,3-d]pyrimidin-4-yl)-3-azabicyclo[3.2.1]octane-8-carboxylate] | > 100000 | 95200 | 14100
O=C(Oc1ccc(F)c(F)c1)[C@@H]1[C@@H]2CC[C@H]1CN(c1nc(OCC34CCCN3CCC4)nc3c(F)c(-c4cccc5cccc(F)c45)ncc13)C2 [Example 23, 3,4-difluorophenyl (1R,5S,8r)-3-(8-fluoro-7-(8-fluoronaphthalen-1-yl)-2-((tetrahydro-1H-pyrrolizin-7a(5H)-yl)methoxy)pyrido[4,3-d]pyrimidin-4-yl)-3-azabicyclo[3.2.1]octane-8-carboxylate] | 61600 | 34800 | 11800
O=C(Oc1c(F)cccc1F)[C@@H]1[C@@H]2CC[C@H]1CN(c1nc(OCC34CCCN3CCC4)nc3c(F)c(-c4cccc5cccc(F)c45)ncc13)C2 [Example 24, 2,6-difluorophenyl (1R,5S,8r)-3-(8-fluoro-7-(8-fluoronaphthalen-1-yl)-2-((tetrahydro-1H-pyrrolizin-7a(5H)-yl)methoxy)pyrido[4,3-d]pyrimidin-4-yl)-3-azabicyclo[3.2.1]octane-8-carboxylate] | > 100000 | 30500 | 17700
O=C(Oc1ccccc1F)[C@@H]1[C@@H]2CC[C@H]1CN(c1nc(OCC34CCCN3CCC4)nc3c(F)c(-c4cccc5cccc(F)c45)ncc13)C2 [Example 25, 2-fluorophenyl (1R,5S,8s)-3-(8-fluoro-7-(8-fluoronaphthalen-1-yl)-2-((tetrahydro-1H-pyrrolizin-7a(5H)-yl)methoxy)pyrido[4,3-d]pyrimidin-4-yl)-3-azabicyclo[3.2.1]octane-8-carboxylate] | > 100000 | 66900 | 10900
O=C(Oc1ccccc1)[C@@H]1[C@@H]2CC[C@H]1CN(c1nc(OCC34CCCN3CCC4)nc3c(F)c(-c4cccc5cccc(F)c45)ncc13)C2 [Example 26, phenyl (1R,5S,8r)-3-(8-fluoro-7-(8-fluoronaphthalen-1-yl)-2-((tetrahydro-1H-pyrrolizin-7a(5H)-yl)methoxy)pyrido[4,3-d]pyrimidin-4-yl)-3-azabicyclo[3.2.1]octane-8-carboxylate] | 75600 | 92800 | 10600
N#Cc1ccccc1OC(=O)C1CCN(c2nc(OCC34CCCN3CCC4)nc3c(F)c(-c4cccc5cccc(F)c45)ncc23)CC1 [Example 27, 2-cyanophenyl 1-(8-fluoro-7-(8-fluoronaphthalen-1-yl)-2-((tetrahydro-1H-pyrrolizin-7a(5H)-yl)methoxy)pyrido[4,3-d]pyrimidin-4-yl)piperidine-4-carboxylate] | > 100000 | 452 | 89200
N#Cc1cccc(OC(=O)C2CCN(c3nc(OCC45CCCN4CCC5)nc4c(F)c(-c5cccc6cccc(F)c56)ncc34)CC2)c1 [Example 28, 3-cyanophenyl 1-(8-fluoro-7-(8-fluoronaphthalen-1-yl)-2-((tetrahydro-1H-pyrrolizin-7a(5H)-yl)methoxy)pyrido[4,3-d]pyrimidin-4-yl)piperidine-4-carboxylate] | 74700 | 724 | > 100000
N#Cc1ccc(OC(=O)C2CCN(c3nc(OCC45CCCN4CCC5)nc4c(F)c(-c5cccc6cccc(F)c56)ncc34)CC2)cc1 [Example 29, 4-cyanophenyl 1-(8-fluoro-7-(8-fluoronaphthalen-1-yl)-2-((tetrahydro-1H-pyrrolizin-7a(5H)-yl)methoxy)pyrido[4,3-d]pyrimidin-4-yl)piperidine-4-carboxylate] | > 100000 | 201 | 90500
O=C(Oc1c(F)cccc1F)C1CCN(c2nc(OCC34CCCN3CCC4)nc3c(F)c(-c4cccc5cccc(F)c45)ncc23)CC1 [Example 30, 2,6-difluorophenyl 1-(8-fluoro-7-(8-fluoronaphthalen-1-yl)-2-((tetrahydro-1H-pyrrolizin-7a(5H)-yl)methoxy)pyrido[4,3-d]pyrimidin-4-yl)piperidine-4-carboxylate] | 32800 | 194 | > 100000
O=C(OCC(F)(F)F)C1CCN(c2nc(OCC34CCCN3CCC4)nc3c(F)c(-c4cccc5cccc(F)c45)ncc23)CC1 [Example 31, 2,2,2-trifluoroethyl 1-(8-fluoro-7-(8-fluoronaphthalen-1-yl)-2-((tetrahydro-1H-pyrrolizin-7a(5H)-yl)methoxy)pyrido[4,3-d]pyrimidin-4-yl)piperidine-4-carboxylate] | > 100000 | > 100000 | 39400
O=C(Oc1cccnc1)C1CCN(c2nc(OCC34CCCN3CCC4)nc3c(F)c(-c4cccc5cccc(F)c45)ncc23)CC1 [Example 32, pyridin-3-yl 1-(8-fluoro-7-(8-fluoronaphthalen-1-yl)-2-((tetrahydro-1H-pyrrolizin-7a(5H)-yl)methoxy)pyrido[4,3-d]pyrimidin-4-yl)piperidine-4-carboxylate] | 43300 | 128 | > 100000
O=C(Oc1cc(F)cc(F)c1)C1CCN(c2nc(OCC34CCCN3CCC4)nc3c(F)c(-c4cccc5cccc(F)c45)ncc23)CC1 [Example 33, 3,5-difluorophenyl 1-(8-fluoro-7-(8-fluoronaphthalen-1-yl)-2-((tetrahydro-1H-pyrrolizin-7a(5H)-yl)methoxy)pyrido[4,3-d]pyrimidin-4-yl)piperidine-4-carboxylate] | > 100000 | 10700 | > 100000
O=C(Oc1cccc(F)c1F)C1CCN(c2nc(OCC34CCCN3CCC4)nc3c(F)c(-c4cccc5cccc(F)c45)ncc23)CC1 [Example 34, 2,3-difluorophenyl 1-(8-fluoro-7-(8-fluoronaphthalen-1-yl)-2-((tetrahydro-1H-pyrrolizin-7a(5H)-yl)methoxy)pyrido[4,3-d]pyrimidin-4-yl)piperidine-4-carboxylate] | > 100000 | 7890 | > 100000
O=C(Oc1ccccc1F)C1CCN(c2nc(OCC34CCCN3CCC4)nc3c(F)c(-c4cccc5cccc(F)c45)ncc23)CC1 [Example 35, 2-fluorophenyl 1-(8-fluoro-7-(8-fluoronaphthalen-1-yl)-2-((tetrahydro-1H-pyrrolizin-7a(5H)-yl)methoxy)pyrido[4,3-d]pyrimidin-4-yl)piperidine-4-carboxylate] | 47500 | 321 | 92600
O=C(Oc1ccc(F)c(F)c1)[C@H]1CCN(c2nc(OCC34CCCN3CCC4)nc3c(F)c(-c4cccc5cccc(F)c45)ncc23)C[C@H]1O [Example 36, 3,4-difluorophenyl (3S,4S)-1-(8-fluoro-7-(8-fluoronaphthalen-1-yl)-2-((tetrahydro-1H-pyrrolizin-7a(5H)-yl)methoxy)pyrido[4,3-d]pyrimidin-4-yl)-3-hydroxypiperidine-4-carboxylate] | > 100000 | 18900 | > 100000
O=C(Oc1ccc(F)c(F)c1)[C@@H]1CCN(c2nc(OCC34CCCN3CCC4)nc3c(F)c(-c4cccc5cccc(F)c45)ncc23)C[C@@H]1O [Example 37, 3,4-difluorophenyl (3R,4R)-1-(8-fluoro-7-(8-fluoronaphthalen-1-yl)-2-((tetrahydro-1H-pyrrolizin-7a(5H)-yl)methoxy)pyrido[4,3-d]pyrimidin-4-yl)-3-hydroxypiperidine-4-carboxylate] | 20400 | 7290 | 20400
O=CC1CCN(c2nc(OCC34CCCN3CCC4)nc3c(F)c(-c4cccc5cccc(F)c45)ncc23)CC1 [Example 38, 1-(8-fluoro-7-(8-fluoronaphthalen-1-yl)-2-((tetrahydro-1H-pyrrolizin-7a(5H)-yl)methoxy)pyrido[4,3-d]pyrimidin-4-yl)piperidine-4-carbaldehyde] | 27900 | 761 | 19300
COC(=O)C1CCN(c2nc(OCC34CCCN3CCC4)nc3c(F)c(-c4cccc5cccc(F)c45)ncc23)CC1 [Example 41, methyl 1-(8-fluoro-7-(8-fluoronaphthalen-1-yl)-2-((tetrahydro-1H-pyrrolizin-7a(5H)-yl)methoxy)pyrido[4,3-d]pyrimidin-4-yl)piperidine-4-carboxylate] | 17600 | 18200 | 12300
